The target of test [1] is RAC-alpha serine/threonine-protein kinase (Homo sapiens, UniProt P31749). Description: Inhibition of AKT1 expressed in Escherichia coli or baculovirus-infected insect cells by scintillation proximity assay.
Test [2] addresses Serine/threonine-protein kinase B-raf (Homo sapiens) (UniProt P15056). Briefly: Inhibition of B-Raf expressed in Escherichia coli or baculovirus-infected insect cells using ATP as substrate at 400 uM by fluorescence polarization assay.
The target in test [3] is Tyrosine-protein kinase SYK (Homo sapiens, UniProt P43405). Description: Inhibition of SYK expressed in Escherichia coli or baculovirus-infected insect cells by TR-FRET assay.
Test [4] concerns the target Mitogen-activated protein kinase 14 (Homo sapiens, UniProt Q16539). Briefly: Inhibition of p38alpha expressed in Escherichia coli or baculovirus-infected insect cells by TR-FRET assay.
Test [5] addresses T1, Inhibitor of nuclear factor kappa-B kinase subunit beta (Homo sapiens, UniProt O14920).
T1 sequence (O14920 whole entry): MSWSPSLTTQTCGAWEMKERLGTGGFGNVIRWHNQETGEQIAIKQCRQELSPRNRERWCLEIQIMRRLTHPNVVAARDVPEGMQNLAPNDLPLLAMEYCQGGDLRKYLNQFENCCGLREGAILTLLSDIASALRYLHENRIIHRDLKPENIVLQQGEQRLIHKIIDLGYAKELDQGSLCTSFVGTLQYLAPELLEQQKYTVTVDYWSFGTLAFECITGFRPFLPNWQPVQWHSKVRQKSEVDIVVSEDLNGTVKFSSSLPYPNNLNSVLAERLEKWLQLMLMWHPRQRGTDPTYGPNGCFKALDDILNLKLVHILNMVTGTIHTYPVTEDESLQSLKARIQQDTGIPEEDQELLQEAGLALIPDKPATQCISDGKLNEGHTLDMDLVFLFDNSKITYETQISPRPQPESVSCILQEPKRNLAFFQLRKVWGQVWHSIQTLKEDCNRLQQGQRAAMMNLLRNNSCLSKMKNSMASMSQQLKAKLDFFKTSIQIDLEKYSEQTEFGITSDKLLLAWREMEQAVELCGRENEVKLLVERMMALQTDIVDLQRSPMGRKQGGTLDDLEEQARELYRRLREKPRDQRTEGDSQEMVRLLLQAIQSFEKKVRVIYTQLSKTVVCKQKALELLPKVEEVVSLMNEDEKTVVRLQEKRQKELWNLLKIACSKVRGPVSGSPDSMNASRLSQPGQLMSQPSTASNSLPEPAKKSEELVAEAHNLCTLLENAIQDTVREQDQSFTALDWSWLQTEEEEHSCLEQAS
Briefly: biochemical. It is filed as cell-based.

Test [6] addresses Mitogen-activated protein kinase 8 (Homo sapiens, UniProt P45983). Briefly: Inhibition of JNK1 expressed in Escherichia coli or baculovirus-infected insect cells by TR-FRET assay.

Where only a bound is given, the exact number is not on record here.

RAC-alpha serine/threonine-protein kinase, sequence (P31749 whole entry): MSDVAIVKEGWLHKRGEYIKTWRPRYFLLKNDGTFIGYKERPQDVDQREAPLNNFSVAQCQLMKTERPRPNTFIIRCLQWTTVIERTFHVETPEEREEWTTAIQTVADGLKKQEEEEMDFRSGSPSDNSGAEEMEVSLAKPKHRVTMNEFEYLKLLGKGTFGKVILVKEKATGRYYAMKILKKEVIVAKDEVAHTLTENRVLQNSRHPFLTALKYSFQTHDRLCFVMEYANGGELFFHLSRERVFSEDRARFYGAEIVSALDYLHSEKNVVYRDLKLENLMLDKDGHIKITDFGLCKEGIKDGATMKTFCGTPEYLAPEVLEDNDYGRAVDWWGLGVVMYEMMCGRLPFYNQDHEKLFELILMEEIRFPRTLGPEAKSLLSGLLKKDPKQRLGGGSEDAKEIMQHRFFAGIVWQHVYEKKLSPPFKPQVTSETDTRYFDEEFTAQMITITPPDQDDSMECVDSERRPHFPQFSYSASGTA
Serine/threonine-protein kinase B-raf (Homo sapiens), sequence (P15056 whole entry): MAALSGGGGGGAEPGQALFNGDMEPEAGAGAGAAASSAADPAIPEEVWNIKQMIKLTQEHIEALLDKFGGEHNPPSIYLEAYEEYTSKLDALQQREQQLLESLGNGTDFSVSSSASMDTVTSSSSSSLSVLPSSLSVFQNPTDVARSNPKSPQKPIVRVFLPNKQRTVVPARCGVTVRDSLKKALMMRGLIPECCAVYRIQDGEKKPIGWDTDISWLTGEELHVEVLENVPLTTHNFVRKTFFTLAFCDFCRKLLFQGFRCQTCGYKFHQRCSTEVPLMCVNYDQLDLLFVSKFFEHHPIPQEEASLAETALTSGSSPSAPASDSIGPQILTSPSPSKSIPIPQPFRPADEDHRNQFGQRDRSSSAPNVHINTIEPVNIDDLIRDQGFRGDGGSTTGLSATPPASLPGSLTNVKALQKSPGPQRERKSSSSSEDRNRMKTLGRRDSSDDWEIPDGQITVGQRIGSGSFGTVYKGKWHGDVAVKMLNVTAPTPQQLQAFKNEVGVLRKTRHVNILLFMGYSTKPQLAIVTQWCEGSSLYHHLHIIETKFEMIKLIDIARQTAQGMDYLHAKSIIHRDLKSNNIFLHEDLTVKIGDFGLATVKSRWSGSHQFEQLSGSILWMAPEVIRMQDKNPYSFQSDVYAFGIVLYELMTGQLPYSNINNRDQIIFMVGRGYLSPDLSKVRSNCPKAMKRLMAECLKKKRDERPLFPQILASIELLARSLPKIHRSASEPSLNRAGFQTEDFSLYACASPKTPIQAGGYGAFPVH
Mitogen-activated protein kinase 8, sequence (P45983 whole entry): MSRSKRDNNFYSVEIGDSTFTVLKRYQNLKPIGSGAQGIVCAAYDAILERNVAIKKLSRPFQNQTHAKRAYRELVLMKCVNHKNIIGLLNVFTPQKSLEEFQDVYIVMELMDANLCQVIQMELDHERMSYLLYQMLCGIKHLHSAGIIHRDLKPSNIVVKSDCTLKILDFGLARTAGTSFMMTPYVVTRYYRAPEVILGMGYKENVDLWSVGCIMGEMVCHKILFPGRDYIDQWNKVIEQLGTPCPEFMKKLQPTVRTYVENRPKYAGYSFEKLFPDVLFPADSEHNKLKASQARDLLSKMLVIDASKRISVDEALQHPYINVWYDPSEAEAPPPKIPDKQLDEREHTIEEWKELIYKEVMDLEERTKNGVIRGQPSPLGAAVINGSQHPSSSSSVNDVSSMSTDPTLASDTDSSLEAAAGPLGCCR
Mitogen-activated protein kinase 14, sequence (Q16539 whole entry): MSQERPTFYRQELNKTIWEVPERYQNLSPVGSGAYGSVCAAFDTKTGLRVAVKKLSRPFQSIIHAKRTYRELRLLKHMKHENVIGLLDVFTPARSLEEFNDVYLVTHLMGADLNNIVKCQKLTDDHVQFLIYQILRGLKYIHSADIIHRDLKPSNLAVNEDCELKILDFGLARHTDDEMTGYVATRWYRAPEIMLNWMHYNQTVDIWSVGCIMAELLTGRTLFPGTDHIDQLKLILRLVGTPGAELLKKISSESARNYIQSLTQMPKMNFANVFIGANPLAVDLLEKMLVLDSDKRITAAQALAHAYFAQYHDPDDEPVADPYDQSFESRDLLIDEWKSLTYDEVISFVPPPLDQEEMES

`c1ccc2[nH]ncc2c1` [INDAZOLE]: the results for the IC50 in test [1] (read-out: IC50) and in test [1] (read-out: pIC50 (converted)) were over 400 µM and over 398 µM, respectively. For the same molecule, in test [2], the inhibition amounted to 0%.

Turning to `O=C(Nc1ccccc1)Nc1ccccc1`, the IC50 in test [3] is over 660 µM.

`c1ccc(Nc2ncccn2)cc1`: the IC50 is over 667 µM in test [4] (read-out: IC50), over 631 µM in test [4] (read-out: pIC50 (converted)), over 667 µM in test [5] (read-out: IC50) and over 631 µM in test [5] (read-out: pIC50 (converted)). Besides, the inhibition in test [2] came to 10%.

Turning to `Nc1ncccc1OCc1ccccc1`, the inhibition in test [2] is 100%.

In the case of `c1cnc2[nH]ccc2c1`, the IC50 was over 667 µM in test [6] (read-out: IC50); over 631 µM in test [6] (read-out: pIC50 (converted)); over 400 µM in test [1] (read-out: IC50); over 398 µM in test [1] (read-out: pIC50 (converted)); over 667 µM in test [5] (read-out: IC50); over 631 µM in test [5] (read-out: pIC50 (converted)). In addition, in test [2], the inhibition stood at 19%.

Source of the values: ChEMBL document CHEMBL1817560, “Selectivity of kinase inhibitor fragments” (J Med Chem, 2011).
